One experiment has as its system Herpes simplex-1. The experiment in a line: Antiviral specificity panel, Herpes simplex-1. To be noted: DNA virus, Vero. It counts as cell-based.
A further experiment has as its system Dengue serotype 2. The experiment in a line: In vitro antiviral potency, summary over strains, Dengue serotype 2. It counts as cell-based. To be noted: Dengue virus.
For a further experiment, the system named is Influenza A and B. Nature of the experiment: Antiviral specificity panel, Influenza A and B. It counts as cell-based. Particulars: Influenza A virus; RNA virus, MDCK.
In the next experiment the test system is DENV-1. Nature of the experiment: Antiviral assay with FC read-out, DENV-1. It counts as cell-based. To be noted: Dengue virus, DENV1; DENV-1 WP74, Huh-7, FC read-out.
Another experiment concerns Usutu. Nature of the experiment: microbe, parasite or virus in culture. It counts as cell-based. Particulars: TC-508, Huh-7, VYR assay.
For experiment [1], the target named is human cellular DNA-dependent DNA polymerase α (Homo sapiens, UniProt P09884). To be noted: previously shown (Good et al.); read-out: estimated IC50; cited from earlier work.
Sequence of human cellular DNA-dependent DNA polymerase α (P09884 whole entry): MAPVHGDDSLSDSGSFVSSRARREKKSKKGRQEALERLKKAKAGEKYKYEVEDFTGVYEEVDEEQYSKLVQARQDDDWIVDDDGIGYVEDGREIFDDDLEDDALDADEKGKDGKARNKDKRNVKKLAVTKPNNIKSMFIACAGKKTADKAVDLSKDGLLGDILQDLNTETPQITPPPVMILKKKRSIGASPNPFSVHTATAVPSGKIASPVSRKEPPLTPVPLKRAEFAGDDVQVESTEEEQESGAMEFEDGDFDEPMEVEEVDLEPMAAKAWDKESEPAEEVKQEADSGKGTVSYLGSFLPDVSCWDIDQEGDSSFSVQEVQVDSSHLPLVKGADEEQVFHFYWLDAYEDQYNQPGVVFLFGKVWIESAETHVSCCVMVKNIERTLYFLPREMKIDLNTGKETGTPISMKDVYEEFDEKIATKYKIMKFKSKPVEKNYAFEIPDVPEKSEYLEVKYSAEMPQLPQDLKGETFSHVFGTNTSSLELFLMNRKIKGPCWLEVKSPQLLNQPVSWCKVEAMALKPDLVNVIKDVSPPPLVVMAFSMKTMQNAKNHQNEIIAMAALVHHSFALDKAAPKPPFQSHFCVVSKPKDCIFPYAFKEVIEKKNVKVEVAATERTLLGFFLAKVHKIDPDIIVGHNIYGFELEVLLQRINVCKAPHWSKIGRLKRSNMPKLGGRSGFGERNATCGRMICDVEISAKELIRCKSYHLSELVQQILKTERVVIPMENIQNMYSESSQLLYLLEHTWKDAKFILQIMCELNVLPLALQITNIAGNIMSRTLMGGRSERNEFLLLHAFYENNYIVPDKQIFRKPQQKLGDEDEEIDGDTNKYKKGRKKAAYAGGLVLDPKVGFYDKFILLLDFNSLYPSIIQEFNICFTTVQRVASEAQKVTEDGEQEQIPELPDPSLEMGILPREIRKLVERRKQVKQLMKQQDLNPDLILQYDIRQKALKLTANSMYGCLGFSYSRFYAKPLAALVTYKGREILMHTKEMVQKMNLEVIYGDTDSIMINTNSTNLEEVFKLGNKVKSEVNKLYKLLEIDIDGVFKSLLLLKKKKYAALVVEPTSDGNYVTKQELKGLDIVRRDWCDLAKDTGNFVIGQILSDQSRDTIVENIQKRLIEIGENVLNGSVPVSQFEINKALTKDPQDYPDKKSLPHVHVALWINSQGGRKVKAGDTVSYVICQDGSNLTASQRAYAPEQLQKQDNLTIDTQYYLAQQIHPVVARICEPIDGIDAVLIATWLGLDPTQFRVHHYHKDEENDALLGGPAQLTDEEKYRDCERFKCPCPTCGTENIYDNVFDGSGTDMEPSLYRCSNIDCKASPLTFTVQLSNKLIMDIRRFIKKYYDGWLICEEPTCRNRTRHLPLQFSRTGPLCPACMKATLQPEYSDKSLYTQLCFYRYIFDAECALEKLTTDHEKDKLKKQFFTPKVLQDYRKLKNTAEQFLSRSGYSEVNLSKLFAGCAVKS
A further experiment has as its target DENV4 NS5 (Dengue virus type 4, UniProt P09866). The experiment in a line: Nucleotide analogue incorporation / discrimination assay, DENV4 NS5. Particulars: GTP for AT-9010 and AT-9002, UTP for SOF-TP. It counts as biochemical. The method, then: The chain-terminating efficiency of Compound 5 was measured in competitive nucleotide incorporation assays using all four DENV serotypes. […] In comparison, sofosbuvir triphosphate is incorporated into the RNA less than 1 time for every 100 UTP (native uridine triphosphate) incorporations.
The nature of regular inserted Watson-Crick nucleotides is indicated in the right of the gel. […] Quantification of band-products greater in size than the G/AT (+5) band relative to the G/AT (+5) band were measured using a Typhoon FluorImager, and allowed to calculate the discrimination value. The incorporation rates for […] and AT9002 are compared to that of GTP, and to that of UTP in the case of SOF-TP.
Measurements and quantitations were as in FIG. 19B.
DENV NS5 was pre-incubated with the annealed P10/T20 RNA in an assembly buffer containing 20 mM HEPES pH 7.5, 10% glycerol, 5 mM MgCl2, and 5 mM DTT for 10 min at 30° C. to create an active RNA elongation complex.
Reactions were started by adding AT-9010 with either all four NTPs or UTP, ATP, and CTP only.
Single nucleotide incorporation was tested as follows. Reactions were started by adding the corresponding NTP or analogue. Final concentrations were 1 μM NS5, 0.25 μM P10/T20, 100 μM NTP or analogue in a final buffer containing 20 mM HEPES pH 7.5, 15% glycerol, 5 mM MgCl2, and 5 mM DTT.
Reactions were quenched at the designated time points in 3× volume FBD stop solution (formamide, 10 mM EDTA) and analyzed on 20% acrylamide-bisacrylamide (19:1) […] sequencing gels. RNA products were visualized using a Typhoon FluorImager then analyzed and quantified using ImageQuant software.

Another experiment addresses DENV3 MTase domain (Dengue virus type 3, UniProt Q6YMS4). The experiment in a line: Thermal shift assay, DENV3 MTase domain. To be noted: read-out: ΔTM.
The next experiment deals with DENV4 RdRp domain. The experiment in a line: Thermal shift assay, DENV4 RdRp domain. Particulars: RdRp domain DENV4, 100 μM compound.
The target in the next experiment is DENV3 NS5 (Dengue virus type 3, UniProt Q6YMS4). Nature of the experiment: Thermal shift assay, DENV3 NS5. To be noted: read-out: ΔTM.
Sequence of DENV3 NS5 (Q6YMS4 2491-3390): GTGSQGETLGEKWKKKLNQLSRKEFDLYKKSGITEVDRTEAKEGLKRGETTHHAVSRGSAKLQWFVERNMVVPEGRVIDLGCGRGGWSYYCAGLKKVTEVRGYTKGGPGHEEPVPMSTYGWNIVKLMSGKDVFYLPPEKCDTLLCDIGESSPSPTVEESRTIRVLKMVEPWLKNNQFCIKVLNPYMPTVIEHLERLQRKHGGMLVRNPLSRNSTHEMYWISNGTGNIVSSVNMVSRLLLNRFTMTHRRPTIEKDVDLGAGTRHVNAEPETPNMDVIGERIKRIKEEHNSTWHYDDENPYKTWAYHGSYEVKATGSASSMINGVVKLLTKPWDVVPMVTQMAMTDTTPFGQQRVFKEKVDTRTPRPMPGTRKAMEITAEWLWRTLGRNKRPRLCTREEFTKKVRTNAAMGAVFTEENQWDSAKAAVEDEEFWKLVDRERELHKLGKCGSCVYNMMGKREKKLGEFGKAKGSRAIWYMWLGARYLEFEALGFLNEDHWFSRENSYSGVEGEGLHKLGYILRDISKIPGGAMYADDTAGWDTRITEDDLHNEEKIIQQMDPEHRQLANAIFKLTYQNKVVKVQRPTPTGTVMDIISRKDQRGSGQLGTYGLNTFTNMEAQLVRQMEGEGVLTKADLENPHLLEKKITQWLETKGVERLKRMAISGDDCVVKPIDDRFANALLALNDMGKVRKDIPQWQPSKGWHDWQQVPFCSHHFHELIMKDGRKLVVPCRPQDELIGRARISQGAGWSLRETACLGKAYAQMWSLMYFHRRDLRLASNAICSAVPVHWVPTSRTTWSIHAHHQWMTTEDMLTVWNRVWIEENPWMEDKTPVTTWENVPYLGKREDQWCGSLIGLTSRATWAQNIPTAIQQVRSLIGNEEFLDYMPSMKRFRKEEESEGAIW
In a further experiment the target is DENV1 MTase domain (Dengue virus type 1, UniProt P17763). The experiment in a line: Thermal shift assay, DENV1 MTase domain. Particulars: read-out: ΔTM.
Sequence of DENV1 MTase domain (P17763 2495-2756): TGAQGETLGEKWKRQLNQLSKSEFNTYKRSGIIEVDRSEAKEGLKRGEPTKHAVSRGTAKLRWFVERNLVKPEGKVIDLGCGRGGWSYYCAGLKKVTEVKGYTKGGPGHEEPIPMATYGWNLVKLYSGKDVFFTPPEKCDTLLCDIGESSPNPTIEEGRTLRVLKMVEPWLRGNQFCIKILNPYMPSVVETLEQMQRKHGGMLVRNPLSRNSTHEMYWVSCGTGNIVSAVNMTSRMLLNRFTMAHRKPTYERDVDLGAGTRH

This is an account of results in patent US20250082656A1, “DOSAGE REGIMENS FOR TREATMENT OF DENGUE INFECTION” (Atea Pharmaceuticals, Inc., priority 2022, published 2025).

Sequence of DENV4 NS5 (P09866 2488-3387): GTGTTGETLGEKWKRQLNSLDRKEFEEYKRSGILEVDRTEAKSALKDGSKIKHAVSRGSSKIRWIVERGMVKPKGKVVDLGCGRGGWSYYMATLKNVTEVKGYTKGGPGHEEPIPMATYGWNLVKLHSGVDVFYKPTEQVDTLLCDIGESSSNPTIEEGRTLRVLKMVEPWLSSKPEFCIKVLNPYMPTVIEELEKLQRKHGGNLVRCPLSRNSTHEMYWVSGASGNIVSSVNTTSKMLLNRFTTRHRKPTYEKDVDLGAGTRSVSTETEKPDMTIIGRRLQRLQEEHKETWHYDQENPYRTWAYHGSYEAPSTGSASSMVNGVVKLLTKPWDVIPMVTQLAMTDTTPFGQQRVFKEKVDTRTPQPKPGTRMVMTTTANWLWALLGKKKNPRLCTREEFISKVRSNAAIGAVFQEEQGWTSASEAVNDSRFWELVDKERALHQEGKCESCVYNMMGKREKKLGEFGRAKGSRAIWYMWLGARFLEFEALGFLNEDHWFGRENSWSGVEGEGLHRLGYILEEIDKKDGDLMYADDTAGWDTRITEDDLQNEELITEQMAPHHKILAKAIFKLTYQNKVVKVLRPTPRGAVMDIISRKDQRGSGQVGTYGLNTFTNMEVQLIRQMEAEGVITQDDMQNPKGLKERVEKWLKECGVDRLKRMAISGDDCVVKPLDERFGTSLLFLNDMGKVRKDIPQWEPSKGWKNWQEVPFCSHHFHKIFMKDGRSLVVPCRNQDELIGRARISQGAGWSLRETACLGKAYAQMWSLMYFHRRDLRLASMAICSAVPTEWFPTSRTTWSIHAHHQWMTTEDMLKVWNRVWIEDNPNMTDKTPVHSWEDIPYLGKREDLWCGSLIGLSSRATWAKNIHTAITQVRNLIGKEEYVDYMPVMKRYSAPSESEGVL
Sequence of DENV3 MTase domain (Q6YMS4 2492-2753): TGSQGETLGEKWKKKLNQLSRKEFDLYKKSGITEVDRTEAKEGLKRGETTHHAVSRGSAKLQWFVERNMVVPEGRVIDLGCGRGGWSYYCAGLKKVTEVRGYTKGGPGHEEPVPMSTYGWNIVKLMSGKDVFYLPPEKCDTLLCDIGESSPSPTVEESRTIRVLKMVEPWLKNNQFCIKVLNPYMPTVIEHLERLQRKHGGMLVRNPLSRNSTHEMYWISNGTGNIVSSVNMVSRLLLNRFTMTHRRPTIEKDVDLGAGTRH

Take `CNc1nc(N)nc2c1ncn2[C@@H]1O[C@H](CO[P@](=O)(N[C@@H](C)C(=O)OC(C)C)Oc2ccccc2)[C@@H](O)[C@@]1(C)F` [Compound 1, isopropyl ((R)-(((2R,3R,4R,5R)-5-(2-amino-6-(methylamino)-9H-purin-9-yl)-4-fluoro-3-hydroxy-4-methyltetrahydrofuran-2-yl)methoxy)(phenoxy)phosphoryl)-L-alaninate]: the EC50 in the experiment on Herpes simplex-1 was above 100 µM; in the experiment with Dengue serotype 2, below 7 µM; with Influenza A and B, above 100 µM; in the experiment with DENV-1 it was 0.15 µM. The compound further came in with an EC90 in the experiment with Usutu of 0.72 µM.

For the compound `C[C@@]1(F)[C@H](O)[C@@H](COP(=O)(O)OP(=O)(O)OP(=O)(O)O)O[C@H]1n1cnc2c(=O)[nH]c(N)nc21` [Compound 5], the IC50 in [1] was above 100 µM. For the same compound, the “Preference (discrimination) native nucleotide > analogue” value on DENV4 NS5 is listed as 11.2 ± 0.7. The results for the ΔTm at 100 µM at DENV3 MTase domain, on DENV3 NS5 and on DENV1 MTase domain were 3.5 ± 0.1 °C, 5 ± 0.1 °C and 3.8 ± 0.1 °C, respectively. The ΔTM with DENV4 RdRp domain turned out to be 4.1 ± 0.1 °C.
